Assay results taken from article PMC8143339, “PK/PD Modeling of the PDE7 Inhibitor—GRMS-55 in a Mouse Model of Autoimmune Hepatitis” (Pharmaceutics, 2021).

Columns and labels:
ConA-induced hepatitis = assay: Preliminary pharmacological evaluation in ConA-induced hepatitis; type: in vivo, BALB/c mice
Experimental: ConA was dissolved in sterile saline (2 mg·mL^−1). The studied compounds (GRMS-55, rolipram, and BRL-50481) were dissolved in a mixture of DMSO, PEG 400, and water for injection at a ratio of 25:25:50 (v/v/v). Mice were given an IP injection of the investigated compounds or the corresponding volume of vehicle alone and, thirty minutes later, intravenously (IV) administered with ConA solution. An additional control group received vehicle alone IP instead of the studied compounds followed by IV injection of sterile saline. ConA was given at a dose of 20 mg·kg^−1. Mice were exsanguinated at several time points post-ConA injection. Blood samples were allowed to clot for 0.5 h at room temperature and then centrifuged at 3000× g for 10 min to obtain the serum, which was stored at −20 °C until further analysis.
The influence of PDE inhibitors on the levels of inflammatory mediators and transaminases in ConA-treated mice was investigated in two separate experiments. In the preliminary study, the animals were pretreated IP with GRMS-55 at a dose of 50 mg·kg^−1, the PDE4-selective inhibitor rolipram at a dose of 10 mg·kg^−1, or the PDE7-selective inhibitor BRL-50481 at a dose of 50 mg·kg^−1. Doses of the investigated compounds were chosen based on the results of previous studies. Subsequently, mice were given an IV injection of ConA and sacrificed at 8 h following mitogen dosing. The levels of TNF-α, IL-6, and IFN-γ and the activities of ALT and AST in the mouse serum were measured. This preliminary experiment allowed comparing the activity of the studied PDE inhibitors in this AIH model and helped to select the doses of GRMS-55 for a subsequent pharmacodynamic study. In the final pharmacodynamic experiment, GRMS-55 was administered at two dose levels (50 and 100 mg·kg^−1) followed by ConA administration at a dose of 20 mg·kg^−1. Animals were sacrificed at various time points post-ConA dosing (1, 2, 4, 8 and 24 h). The levels of TNF-α, IL-1β, IL-4, IL-6, IL-10, IL-12, IL-17A, and IFN-γ were measured using a multiplex Luminex assay. In addition, the activities of ALT and AST in the mouse serum were assessed. The concentration–time profiles of the selected biomarkers obtained in this experiment combined with the results of pharmacokinetic analysis allowed the development of a semi-mechanistic PK/PD/disease progression model and the investigation of concentration–effect relationships of GRMS-55.
The serum samples from the preliminary pharmacological study were analyzed using ELISA tests according to the protocols provided by the manufacturers. The TNF-α concentrations were measured using the Mouse TNF-α Quantikine ELISA Kit (R&D Systems, Minneapolis, MN, USA), while the concentrations of IL-6 and IFN-gamma were quantified by ELISA kits manufactured by Cloud-Clone Corp. (Houston, TX, USA). The absorbance of samples was measured on a POLARstar Omega multi-mode microplate reader (BMG LABTECH, Ortenberg, Germany) set at 450 nm wavelength. TNF-α, IL-1β, IL-6, IL-4, IL-10, IL-12, IL-17A, and IFN-γ serum levels in samples from pharmacodynamic experiment were determined by a premixed Magnetic Luminex Assay (R&D Systems, Inc., Minneapolis, MN, USA) according to the manufacturer’s protocol. Serum AST and ALT activities were quantified on a chemistry analyzer BS-800 (Shenzhen Mindray Bio-medical Electronics Co., Ltd., Shenzhen, China).

PDE4B = settings: in vitro assay; read-out: IC50 PDE4B; cited from earlier work
PDE7A = settings: in vitro assay; read-out: IC50 PDE7A; cited from earlier work
[1] = tested on: paw edema in collagen-induced arthritis; design: method as in PMID 31899535; settings: rats with collagen-induced arthritis, PK/PD arthritis progression model; cited from earlier work
TNF-α production = tested on: TNF-α production; design: method as in PMID 31899535; settings: rat lipopolysaccharide-induced endotoxemia, PK/PD model; cited from earlier work
[2] = 8 h after ConA 20 mg/kg IV, IP pretreatment: rolipram 10, BRL-50481 50, GRMS-55 50 mg/kg, vs vehicle control

Row | Structure (SMILES) | effect on activities of transaminases (ConA-induced hepatitis; 50 mg/kg IP, 8 h after ConA) | effect on serum IFN-γ concentration (ConA-induced hepatitis; [2]) | effect on serum IL-6 concentration (ConA-induced hepatitis; [2]) | effect on serum TNF-α concentration (ConA-induced hepatitis; [2]) | IC50 (PDE4B) | IC50 (PDE7A) | decrease of IFN-γ level compared to control group (ConA-induced hepatitis; 10 mg/kg IP, 8 h after ConA) | decrease of IL-6 level compared to control group (ConA-induced hepatitis; 10 mg/kg IP, 8 h after ConA) | reduction of ALT activity compared to vehicle-treated control group (ConA-induced hepatitis; 10 mg/kg IP, 8 h after ConA) | reduction of AST activity compared to vehicle-treated control group (ConA-induced hepatitis; 10 mg/kg IP, 8 h after ConA) | IC50, decrease of paw edema [1] | IC50, suppression of TNF-α production (TNF-α production)
1 | Cc1ccc([N+](=O)[O-])cc1S(=O)(=O)N(C)C [BRL-50481] | reduced | decreased | no effect | decreased | > 200 µM | 2.1 µM | – | – | – | – | – | –
2 | COc1ccc(C2CNC(=O)C2)cc1OC1CCCC1 (stereo not shown) [Rolipram] | – | – | – | – | – | > 200 µM | approximately 5.0 times | ~3.8 times | approximately 18.2 times | ~6.1 times | 0.01 mg/L | 0.36 mg/L
